Reference: patent US20250057963A1, “DISCOVERY OF PIPERLONGUMINE AS A NOVEL E3 LIGASE LIGAND” (University of Florida Research Foundation, Incorporated, priority 2021, published 2025)
Entries after “also recorded” stand apart in the source; their conditions may differ.

Experiments:
MOLT4 cells = test: Viability (MTS) assay in MOLT4 cells; type: cell-based, Human; details: 72 h treatment
Description: Human T-ALL MOLT4 (Cat. No. CRL-1582), K562 (Cat. No. CCL-243), NCI-H1299 (Cat. No. CRL-5803), NCI-H2228 (Cat. No. CRL-5935), LNCaP (Cat. No. CRL-1740), 22RV1 (Cat. No. CRL-2505), PC3 (Cat. No. CRL-1435), DU145 (Cat. No. HTB-81), and epithelial kidney HEK 293T (293T, Cat. No. ACS-4500) cell lines were recently purchased from American Type Culture Collection (ATCC, Manassas, VA, USA). MOLT4, K562, NCI—H-1299, NCI-H2228, LNCap, and 22RV 1 cell lines were cultured in RPMI 1640 medium (Cat No. 22400-089, Thermo Fisher Scientific, Waltham, MA, USA) supplemented with 10% (v/v) heat-inactivated fetal bovine serum (FBS, Cat. No. S11150H, Atlanta Biologicals, Flowery Branch, GA, USA), 100 U/mL penicillin and 100 pig/mL streptomycin (Pen-Strep, Cat. No. 15140122, Thermo Fisher Scientific). PC3 cells were cultured in complete F—12K medium (Kaighn's modification of Ham's F-12 medium, Cat. No. 30-2004, ATCC) supplemented with 10% (v/v) heat-inactivated FBS, 100 U/mL penicillin, and 100 μg/mL streptomycin. […]
Viability (MTS) assays in various cancer cells followed the methods described in our previous report (Khan et al., 2019). The data were expressed as average % cell viability and fitted in non-linear regression curves using GraphPad Prism 9 (GraphPad Software, La Jolla, CA, USA).

[1] = target: T1, CDK9: 955: KEAP1 ternary complex (Homo sapiens, UniProt P50750+Q14145); test: NanoBRET ternary complex formation assay in live 293T cells; type: cell-based; details: HiBit-CDK9 and Halo-KEAP1 in 293T cells, 6 h
T1 construct: expressed in transfected cells; host or cells: 293T
Text: CMV HiBit (Cat. No. CS1956B03) was purchased from Promega. Plasmid HaloTag-KEAP1 (a gift from Yimon Aye, plasmid #58240) was purchased from Addgene. HiBit-CDK9 were constructed through the Gibson assembly method. The primer pair (5′-[…]atggcaaagcagtacgactcggtggag-3′ and 5′-[…]gaagacgcgctcaaactccgtctggt-3′) and the template HA-CDK9 (a gift from Andrew Rice, plasmid #28102) was used to clone the CDK9 fragment. The primer pair (5′-accagacggagtttgagcgcgtcttc[…]-3′ and 5′-ctccaccgagtcgtactgcttcgccat[…]-3′) and pBit3.1—N(Cat. No. N2361, Promega) were used to clone the vector-containing fragment. The PCR fragments were assembled using NEBuilder® HiFi DNAAssembly Master Mix. DNA sequences in all these plasmids were authenticated by automatic sequencing. […] After treatment, NanoBRET Nano-Glo Substrate (Cat. No. N1662, Promega) was added into the medium, and the contents were mixed by shaking the plate for 30 s before measuring donor and acceptor signals on Biotek plate reader. Dual-filtered luminescence was collected with a 450/50 nm bandpass filter (donor, NanoBiT-CDK9 protein) and a 610-nm longpass filter (acceptor, HaloTag NanoBRET ligand) using an integration time of 0.5 s. mBRET ratios were calculated following the NanoBRET™ Nano-Glo® Detection System (Cat. No. N1662, Promega).

PARP = PARP cleavage (apoptosis indicator) in MOLT4 cells; type: cell-based, Human; details: 6 h
Description: Cells were collected and lysed in RIPA lysis buffer (Cat. #BP-115DG, Boston Bio Products, Ashland, MA, USA) supplemented with protease and phosphatase inhibitor cocktails (Cat. #PPC1010, Sigma-Aldrich, St. Louis, MO, USA). Protein samples were made and immunoblotting was performed as described previously (Khan et al., 2019; Lv et al., 2021). Antibodies purchased from Cell Signaling Technologies (CST) and the dilutions are as follows: Biotin (Cat. No. 5571S, 1:1000), PARP (Cat. No. 9542S, 1:1000), c-Myc (Cat. No. 5605S, 1:1000), MCL1 (Cat. No. 5453S, 1:1000), and ALK (Cat. No. 3791S, 1:1000). KEAP1 antibody was purchased from Proteintech (Cat. No. 10503-2-AP, 1:1000). CDK9 antibody was purchased from Santa Cruz (Cat. No. sc-13130, 1:500). V5-tag antibody was purchased from Bethyl (Cat. No. A190-120P, 1:1000). j-actin antibody was purchased from MP Biomedicals (Cat. No. 8691001, 1:20 000).

[2] = tested on: LNCaP, 22RV1, PC3 and DU145 prostate cancer cell lines; test: Viability (MTS) assay in prostate cancer cell lines; type: cell-based, Human; details: all four cell lines LNCaP, 22RV1, PC3, DU145; MTS, 72 h treatment
Description: All the cell lines were maintained in a humidified incubator at 37° C. and 5% CO2. […] The data were expressed as average % cell viability and fitted in non-linear regression curves using GraphPad Prism 9 (GraphPad Software, La Jolla, CA, USA).

T1 sequence (P50750 whole entry): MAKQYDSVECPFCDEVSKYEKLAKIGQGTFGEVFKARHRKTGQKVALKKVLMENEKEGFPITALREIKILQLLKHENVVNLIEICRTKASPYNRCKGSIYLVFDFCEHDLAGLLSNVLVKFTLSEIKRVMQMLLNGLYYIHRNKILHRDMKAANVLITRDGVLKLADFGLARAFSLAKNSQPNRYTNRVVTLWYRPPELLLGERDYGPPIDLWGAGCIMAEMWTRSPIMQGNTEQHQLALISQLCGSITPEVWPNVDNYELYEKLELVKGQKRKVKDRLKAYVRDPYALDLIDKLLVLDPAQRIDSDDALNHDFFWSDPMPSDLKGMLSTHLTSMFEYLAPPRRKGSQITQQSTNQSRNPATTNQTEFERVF
T1 sequence (Q14145 whole entry): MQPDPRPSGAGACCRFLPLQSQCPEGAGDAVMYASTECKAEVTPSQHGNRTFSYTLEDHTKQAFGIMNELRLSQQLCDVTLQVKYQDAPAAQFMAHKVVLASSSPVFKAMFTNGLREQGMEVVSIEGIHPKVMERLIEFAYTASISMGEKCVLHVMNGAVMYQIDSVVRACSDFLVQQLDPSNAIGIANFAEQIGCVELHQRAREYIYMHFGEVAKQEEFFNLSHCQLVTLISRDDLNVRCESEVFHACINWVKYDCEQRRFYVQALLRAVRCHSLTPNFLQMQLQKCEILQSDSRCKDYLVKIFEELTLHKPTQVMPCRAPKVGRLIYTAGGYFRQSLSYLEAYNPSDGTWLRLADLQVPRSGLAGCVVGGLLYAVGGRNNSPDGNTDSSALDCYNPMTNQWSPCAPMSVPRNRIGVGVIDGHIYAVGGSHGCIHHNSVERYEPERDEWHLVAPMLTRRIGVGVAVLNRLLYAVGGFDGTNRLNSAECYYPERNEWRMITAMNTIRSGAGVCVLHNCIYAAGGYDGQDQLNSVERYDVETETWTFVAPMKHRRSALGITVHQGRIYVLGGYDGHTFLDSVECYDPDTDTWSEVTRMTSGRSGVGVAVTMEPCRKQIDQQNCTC

EC50, anti-proliferation [2]: single digital nM range
Compound: COc1cc(/C=C/C(=O)N2CCC=CC2=O)cc(OC)c1OCCN1CCN(C(=O)CN2CCC(C(=O)Nc3ncc(SCc4ncc(C(C)(C)C)o4)s3)CC2)CC1 [compound 955, (E)-N-(5-(((5-(tert-butyl)oxazol-2-yl)methyl)thio)thiazol-2-yl)-1-(2-(4-(2-(2,6-dimethoxy-4-(3-oxo-3-(6-oxo-3,6-dihydropyridin-1(2H)-yl)prop-1-en-1-yl)phenoxy)ethyl)piperazin-1-yl)-2-oxoethyl)piperidine-4-carboxamide]
potency to kill MOLT4 cells compared with SNS-032 (MOLT4 cells): more potent to kill MOLT4 cells compared with SNS-032 | formation of the CDK9:KEAP1 ternary complex [1]: formed a stable ternary complex with CDK9 and KEAP1 in a dose-dependent manner | induction of PARP cleavage / apoptotic cell death compared with SNS-032 (PARP): more apoptotic cell death compared with SNS-032; also recorded: more potent in inducing PARP cleavage than SNS-032
